In PMC11814485, “Screening of homing and tissue-penetrating peptides by microdialysis and in vivo phage display” (Life Science Alliance, 2025):

Tests used:
CHO-K cells = test: Peptide internalization in vitro, confocal imaging, CHO-K cells; format: cell-based, Chinese hamster; settings: FAM-labeled peptide 20 μM, 3 h, 37°C, confocal fluorescence imaging, representative of three experiments
Method: Figure 1. Microdialysis-captured peptides penetrate the cell membrane. […] CHO-K cells were grown on chamber slides. […] The scale bar is 20 μm. Images are representative of three individual experiments.
Plain growth medium was used as a negative control.

day 7 skin wounds = test: In vivo phage display screen of naive CX7C T7 library using microdialysis and HTS; parameters: species or system rat; settings: for Total counts / First hour (counts) / Second hour (counts): wound microdialysate; for Total counts: first 2 h; for First hour (counts): first hour after library injection, rat 7-d-old wound; for First hour (counts) / Second hour (counts): Ion Torrent HTS; for Second hour (counts): second hour after library injection
Source text: We next adopted microdialysis-based biopanning to identify new wound-penetrating peptides. We used a CX7^trinucC peptide T7 phage library (diversity 3.9 × 10^8) in which random amino acids are encoded by equally represented trinucleotides to prevent codon bias ([Pleiko et al, 2021]). The library was cloned into the genome of the T7 bacteriophage engineered for longer circulation half-life and reduced liver uptake ([Hodyra-Stefaniak et al, 2019]). For biopanning, 3.9 × 10^10 phages (∼100 copies of each phage clone) displaying the C7X^trinucC library were injected in the tail vein of rats with day 7 skin wounds. Microdialysates were collected from probes placed in wounds or normal skin (Table S1). Most of the phage recovery at the microdialysis probe happened during the first 2 h after library dosing. The wound dialysates yielded almost all phages introduced into the two microdialysis probes, only one phage clone was recovered from normal skin dialysate (Table S1). We observed that most of the peptide phage clones appeared in the microdialysate during the first 2 h after phage dosing (Table S1). To obtain representative tissue biodistribution of phage clones in relation to dialysates, the skin wound–bearing rats with no inserted dialysis probes were dosed with the naïve CX7^trinucC peptide library, followed by 30-min circulation, perfusion, collection of organs, and analysis of peptide landscapes. The two dialysates collected during the first 2 h were subjected to HTS (Table S2). Whole tissue samples from the wound with and without the probe (1 + 5 wounds) at 30 min and 5 h, as well as control samples from 14 different tissues (2 × 14) and from normal skin (1 x with and 2 x without probe), and two serum samples at the time of euthanasia (30 min and 5 h after the library injection) were subjected to HTS. […] However, the wound microdialysates contained 13 enriched peptide sequences (Table 2). […] A BLAST analysis on candidate peptide sequences was used to scan for sequence homologies with proteins related to angiogenesis, endocytosis, and wound healing (Table S3).
The phage library used in the in vivo screen with the microdialysis probe was in the 10-3b T7 backbone (5–15 peptide copies per phage), grown in BLT5403 E. coli strain, CsCl-purified, dialyzed in PBS, and filter-sterilized. The library was constructed via trinucleotide synthesis to prevent bias in the amount of different amino acids ([Kayushin et al, 1996]). The diversity of the library was 1 × 10^9 and the titer 5 × 10^10 per ml.
For the in vivo microdialysis, CMA 402 Syringe Pump with Hamilton syringes was used to push and the Harvard P70 peristaltic pump (Harvard Apparatus) to pull the CMA perfusion fluid (CMA Microdialysis AB) and dialysate. Each of the CMA 402 two outputs was connected to the inlet spike of the CMA 12 custom-made 3-MDa probe (CMA Microdialysis AB) via CMA FEP tubing (CMA Microdialysis AB), and the outlet spike of the CMA 12 probe was further connected to Harvard P70 peristaltic pump and further to CMA Probe Shaft Clip (CMA Microdialysis AB) via CMA connector tubing (CMA Microdialysis AB). From the CMA Probe Shaft Clip, the dialysate was pumped into CMA sample tubes (CMA Microdialysis AB). Harvard 0.19-mm-diameter tubing (Harvard Apparatus) and Harvard 3 collar 1.52-mm tubing (Harvard Apparatus) were used with the Harvard P70 peristaltic pump. In addition, CMA tubing adaptors (CMA Microdialysis AB) were used for connecting tubes to syringes and probes. The system was flushed with 70% ethanol before any use.
Male Wistar rats were used for the in vivo validation experiment and the library screen. The rats were 27 wk old and weighed 490 g. Two full-thickness circular wounds were created on a shaved and disinfected skin with a 12-mm-diameter biopsy punch and scissors under sevoflurane anesthesia (Sevoflurane Baxter, Baxter SA) and carprofen analgesia ([…]; Norocarp, Norbrook Laboratories). […]

Sequence	cellular uptake in CHO-K cells (CHO-K cells)	Total counts (day 7 skin wounds) [counts]	First hour (counts) (day 7 skin wounds)	Second hour (counts) (day 7 skin wounds)	detection in skin wound tissue samples (day 7 skin wounds; HTS of whole wound tissue samples)
CARSKNKDC [FAM-labeled synthetic CAR peptide (…), known cell- and tissue-penetrating homing peptide, reference compound]	accumulate in the CHO-K cells	–	–	–	–
CDDYQQISC	–	21	10	11	–
CFCQLMYQC	–	13	8	5	–
CKKNEINNC	–	16	6	10	found in one skin wound sample
CKMLYEYHC	–	18	1	17	–
CLLIYNWSC	–	17	14	3	–
CLSQTYRIC	–	21	19	2	–
CLTVLSEQC	–	15	8	7	–
CNYLVEKNC	–	23	14	9	–
CPKKHHLDC	–	42	19	23	–
CRMKFYSEYC	–	11	2	9	–
CYHDTYPNC	–	28	14	14	–
CYWEDKNLC	–	15	6	9	–
